This note sets out measurements from ChEMBL document CHEMBL5143711, “Glenthmycins A-M: Macrocyclic Spirotetronate Polyketide Antibacterials from the Australian Pasture Plant-Derived Streptomyces sp. CMB-PB041” (J Nat Prod, 2022).

In this test the test system is Mycobacterium tuberculosis variant bovis. The test can be described thus: Antibacterial activity against Mycobacterium bovis BCG ATCC 35741 incubated for 16 to 24 hrs by broth microdilution based spectrophotometric analysis. It counts as functional, organism-based. For orientation: Broth dilution looks for growth in wells or tubes with falling amounts of substance.

A word on the IC50: it is the concentration needed to halve the response being measured. `COc1cc(C)c(C(=O)O[C@H]2[C@@H](O)[C@@H](O)[C@H](O[C@H]3CC[C@H](C)[C@@H]4[C@@H]3C=C(C)[C@H]3/C(C)=C/CC/C(C)=C/[C@]5(C)C=C(C(=O)O)[C@H](C)C[C@]56OC(=O)C(=C6O)C(=O)[C@@]43C)O[C@@H]2C)c(O)c1` displayed an IC50 above 30 µM.

For `COc1cc(C)c(C(=O)O[C@H]2[C@H](O[C@H]3CC[C@H](C)[C@@H]4[C@@H]3C=C(C)[C@H]3/C(C)=C/CC/C(C)=C/[C@]5(C)C=C(C(=O)O)[C@H](C)C[C@]56OC(=O)C(=C6O)C(=O)[C@@]43C)O[C@H](C)[C@@H](O)[C@H]2O)c(O)c1`, the half-inhibitory concentration (IC50) was above 30 µM.

On to `CC(=O)O[C@H]1CC[C@H](C)[C@@H]2[C@@H]1C=C(C)[C@H]1/C(C)=C/CC/C(C)=C/[C@]3(C)C=C(C)[C@H](C)C[C@]34OC(=O)C(=C4O)C(=O)[C@@]21C`, for which the IC50 was above 30 µM.

The compound `CC1=C[C@@]2(C)/C=C(\C)CC/C=C(\C)[C@@H]3C(C)=C[C@H]4[C@@H]([C@@H](C)CC[C@@H]4O)[C@]3(C)C(=O)C3=C(O)[C@@]2(C[C@H]1C)OC3=O` showed a half-maximal inhibitory concentration (IC50) above 30 µM.

For the compound `COc1cc(C)c(C(=O)O[C@H]2[C@@H](O)[C@H](O[C@H]3CC[C@H](C)[C@@H]4[C@@H]3C=C(C)[C@H]3/C(C)=C/CC/C(C)=C/[C@]5(C)C=C(C(=O)O)[C@H](C)C[C@]56OC(=O)C(=C6O)C(=O)[C@@]43C)O[C@H](C)[C@H]2O)c(O)c1`, the concentration for half-maximal inhibition (IC50) was above 30 µM.

Regarding `COc1cc(C)c(C(=O)N[C@@H]2[C@@H](C)O[C@@H](O[C@H]3CC[C@H](C)[C@@H]4[C@@H]3C=C(C)[C@H]3/C(C)=C/CC/C(C)=C/[C@]5(C)C=C(C(=O)O)[C@H](C)C[C@]56OC(=O)C(=C6O)C(=O)[C@@]43C)[C@H](O)[C@]2(C)O)c(O)c1`, the IC50 was above 30 µM.

On to `COc1cc(C)c(C(=O)O[C@H]2[C@H](O[C@H]3CC[C@H](C)[C@@H]4[C@@H]3C=C(C)[C@H]3/C(C)=C/CC/C(C)=C/[C@@H]5C=C(C(=O)O)[C@H](C)C[C@]56OC(=O)C(=C6O)C(=O)[C@@]43C)O[C@H](C)[C@@H](O)[C@H]2O)c(O)c1`, for which the IC50 was above 30 µM.

Compound `COc1cc(C)c(C(=O)O[C@H]2[C@@H](O)[C@@H](O)[C@H](O[C@H]3CC[C@H](C)[C@@H]4[C@@H]3C=C(C)[C@H]3/C(C)=C/CC/C(C)=C/[C@]5(C)C=C(C(=O)O)[C@H](C)C[C@]56OC(=O)C(=C6O)C(=O)[C@@]43C)O[C@@H]2C)c(OC)c1` came in with an IC50 above 30 µM.

In the case of `COc1cc(C)c(C(=O)N[C@@H]2[C@@H](C)O[C@@H](O[C@H]3CC[C@H](C)[C@@H]4[C@@H]3C=C(C)[C@H]3/C(C)=C/CC/C(C)=C/[C@@H]5C=C(C(=O)O)[C@H](C)C[C@]56OC(=O)C(=C6O)C(=O)[C@@]43C)[C@H](O)[C@]2(C)O)c(O)c1`, the concentration for half-maximal inhibition (IC50) is above 30 µM.

`COc1cc(C)c(C(=O)O[C@H]2[C@@H](O)[C@H](O[C@H]3CC[C@H](C)[C@@H]4[C@@H]3C=C(C)[C@H]3/C(C)=C/CC/C(C)=C/[C@@H]5C=C(C(=O)O)[C@H](C)C[C@]56OC(=O)C(=C6O)C(=O)[C@@]43C)O[C@H](C)[C@H]2O)c(O)c1` returned an IC50 above 30 µM.

`COc1cc(C)c(C(=O)O[C@H]2[C@@H](O)[C@@H](O)[C@H](O[C@H]3CC[C@H](C)[C@@H]4[C@@H]3C=C(C)[C@H]3/C(C)=C/CC/C(C)=C/[C@@H]5C=C(C(=O)O)[C@H](C)C[C@]56OC(=O)C(=C6O)C(=O)[C@@]43C)O[C@@H]2C)c(O)c1` showed an IC50 above 30 µM.

In turn, `CC(=O)O[C@H]1CC[C@H](C)[C@@H]2[C@@H]1C=C(C)[C@H]1/C(C)=C/CC/C(C)=C/[C@@H]3C=C(C)[C@H](C)C[C@]34OC(=O)C(=C4O)C(=O)[C@@]21C` returned a half-inhibitory concentration (IC50) above 30 µM.
